In publication PMC6450877, “A revised biosynthetic pathway for the cofactor F420 in prokaryotes” (Nature Communications, 2019):

Experiments:
Mtb-FbiA [1] = target: T1, Mtb-FbiA (Mycobacterium tuberculosis, UniProt P9WP81)
Mtb-FbiD [2] = target: T2, Mtb-FbiD (Mycobacterium tuberculosis, UniProt P9WP83)
Mtb-FbiB [3] = target: T3, Mtb-FbiB (Mycobacterium tuberculosis, UniProt P9WP79)
Mj-CofC = target: T4, Mj-CofC (Methanocaldococcus jannaschii, UniProt Q58297); assay: coupled HPLC-MS assay with Mtb-FbiA; format: biochemical; conditions: Mtb-FbiA present, 1 mM PEP, 2 mM GTP, 0.1 mM Fo, 5 mM MgCl2, pH 7.5, 37 °C
T4 construct: synthetic ORF in pYUB28b, expressed in E. coli, Ni-NTA and SEC
T4 sequence (Q58297 1-224): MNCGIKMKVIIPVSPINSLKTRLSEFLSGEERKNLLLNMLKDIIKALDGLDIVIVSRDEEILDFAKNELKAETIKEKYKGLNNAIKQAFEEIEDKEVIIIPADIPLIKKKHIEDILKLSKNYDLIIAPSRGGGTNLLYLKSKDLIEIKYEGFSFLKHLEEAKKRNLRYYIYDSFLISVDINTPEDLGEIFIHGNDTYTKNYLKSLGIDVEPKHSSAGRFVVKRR

Mtb-FbiD [4] = target: T2, Mtb-FbiD; remark: listed apart in the source
Mtb-FbiB [5] = target: T3, Mtb-FbiB; remark: listed apart in the source
Mtb-FbiA [6] = target: T1, Mtb-FbiA; remark: listed apart in the source

T3 sequence (P9WP79 whole entry): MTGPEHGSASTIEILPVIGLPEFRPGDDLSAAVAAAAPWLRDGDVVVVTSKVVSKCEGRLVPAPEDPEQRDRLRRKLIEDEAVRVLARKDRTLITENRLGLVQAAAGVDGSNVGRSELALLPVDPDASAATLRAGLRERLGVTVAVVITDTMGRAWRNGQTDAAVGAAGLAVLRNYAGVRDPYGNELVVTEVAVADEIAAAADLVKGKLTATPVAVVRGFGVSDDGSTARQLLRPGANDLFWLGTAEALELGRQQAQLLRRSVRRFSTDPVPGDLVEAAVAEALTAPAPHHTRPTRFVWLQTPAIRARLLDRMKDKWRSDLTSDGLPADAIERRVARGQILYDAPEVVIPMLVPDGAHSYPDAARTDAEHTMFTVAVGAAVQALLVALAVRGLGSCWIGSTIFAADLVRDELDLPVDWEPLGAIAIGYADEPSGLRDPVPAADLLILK
T2 sequence (P9WP83 whole entry): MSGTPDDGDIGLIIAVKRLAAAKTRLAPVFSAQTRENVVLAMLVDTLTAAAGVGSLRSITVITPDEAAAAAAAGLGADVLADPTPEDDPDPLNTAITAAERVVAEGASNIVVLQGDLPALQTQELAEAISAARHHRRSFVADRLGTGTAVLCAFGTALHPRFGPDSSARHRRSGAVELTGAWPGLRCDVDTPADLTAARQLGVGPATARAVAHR
T1 sequence (P9WP81 whole entry): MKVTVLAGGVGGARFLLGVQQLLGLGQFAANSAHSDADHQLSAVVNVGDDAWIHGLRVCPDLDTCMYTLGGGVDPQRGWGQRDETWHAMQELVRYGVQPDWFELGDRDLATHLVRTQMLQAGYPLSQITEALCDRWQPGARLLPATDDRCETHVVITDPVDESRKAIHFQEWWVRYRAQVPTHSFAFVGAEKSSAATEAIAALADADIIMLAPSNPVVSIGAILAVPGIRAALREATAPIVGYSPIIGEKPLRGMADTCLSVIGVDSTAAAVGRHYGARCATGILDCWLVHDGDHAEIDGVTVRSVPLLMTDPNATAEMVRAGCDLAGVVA

Structure (SMILES): O=c1nc2n(C[C@H](O)[C@H](O)[C@H](O)CO)c3cc(O)ccc3cc-2c(=O)[nH]1 [Fo, 7,8-didemethyl-8-hydroxy-5-deazariboflavin]
- coupled HPLC-MS assay with FbiD or CofC (Mtb-FbiA [1]): when these enzymes were incubated with PEP, GTP (or ATP), and Fo

Structure (SMILES): Nc1nc2c(ncn2[C@@H]2O[C@H](COP(=O)(O)OP(=O)(O)OP(=O)(O)O)[C@@H](O)[C@H]2O)c(=O)[nH]1 [GTP, guanosine-5ʹ-triphosphate]
- coupled HPLC-MS assay with FbiA (Mtb-FbiD [2]): Mtb-FbiD exclusively utilizes GTP to produce dehydro-F420-0

Structure (SMILES): N[C@@H](CCC(=O)O)C(=O)O [L-glutamate]
- coupled FbiD:FbiA:FbiB assay, LC-MS (Mtb-FbiB [3]): Mtb-FbiB was observed to catalyze the addition of L-glutamate residues to dehydro-F420-0

Structure (SMILES): C=C(OP(=O)(O)O)C(=O)O [PEP, phosphoenolpyruvate]
- coupled HPLC-MS assay with Mtb-FbiA (Mj-CofC): both Mtb-FbiD and CofC from Methanocaldococcus jannaschii (Mj-CofC) enzymes use PEP to produce dehydro-F420-0
- X-ray crystal structure, soak, 2.18 Å (Mtb-FbiD [4]): We also soaked PEP into pre-formed FbiD crystals to obtain an FbiD-PEP complex

Structure (SMILES): C=C(OP(=O)(O)OC[C@@H](O)[C@@H](O)[C@@H](O)Cn1c2nc(=O)[nH]c(=O)c-2cc2ccc(O)cc21)C(=O)O [dehydro-F420-0]
- coupled FbiD:FbiA:FbiB assay with Fre/FMNH2, MS/MS (Mtb-FbiB [5]): dehydro-F420-0 is a bona fide metabolic intermediate that can be converted to mature F420 by FbiB
- coupled HPLC assay, MS/MS (Mtb-FbiA [6]): The discovery of dehydro-F420-0 as the product of FbiD:FbiA activity in mycobacteria
